Data: patent publication US9156845B2, “4-(substituted amino)-7H-pyrrolo[2,3-d] pyrimidines as LRRK2 inhibitors” (Pfizer Inc., priority 2012, dated 2015)
Read-outs that look alike come from different tables or passages of the source.

Key:
[1] = target: GST-tagged truncated LRRK2 (Homo sapiens (Human), UniProt Q5S007); test: LRRK2 Lantha Screen kinase assay; type: biochemical; conditions: geometric mean of 2-5 determinations unless otherwise indicated (a: >=6 determinations; b: single determination); read-out: LRRK2 WT IC50
Experimental: LRRK2 kinase activity was measured using Lantha Screen technology from Invitrogen. GST-tagged truncated LRRK2 from Invitrogen (Cat # PV4874) was incubated with a fluorescein-labeled peptide substrate based upon ezrin/radixin/moesin (ERM), also known as LRRKtide (Invitrogen cat #PR8976A), in the presence of a dose response of compound. Upon completion, the assay was stopped and detected with a terbium labeled anti-phospho-ERM antibody (Invitrogen, cat #PR8975A). […] Aliquots (3.5 μL) of the 100% DMSO dose response were mixed with 46.5 μL water then 1 μL of this mixture was added to the 3 μL substrate mix in the 384-well plate. The kinase reaction was started with 3 μL of a working solution of LRRK2 enzyme at a concentration of 4 μg/mL. […] The reaction was allowed to progress at room temperature for two hours and then stopped with the addition of 7 μL of detection buffer (20 mM Tris pH 7.6, 0.01% NP-40, 0.02% NaN3, 6 mM EDTA with 2 nM terbium labeled anti-phospho-ERM).

GSK3B = GSK3B (Homo sapiens (Human), UniProt P49841); test: ActivX kinase probe assay (human PBMC); type: binding; conditions: read-out: percent inhibition
Chain of GSK3B (P49841 whole entry): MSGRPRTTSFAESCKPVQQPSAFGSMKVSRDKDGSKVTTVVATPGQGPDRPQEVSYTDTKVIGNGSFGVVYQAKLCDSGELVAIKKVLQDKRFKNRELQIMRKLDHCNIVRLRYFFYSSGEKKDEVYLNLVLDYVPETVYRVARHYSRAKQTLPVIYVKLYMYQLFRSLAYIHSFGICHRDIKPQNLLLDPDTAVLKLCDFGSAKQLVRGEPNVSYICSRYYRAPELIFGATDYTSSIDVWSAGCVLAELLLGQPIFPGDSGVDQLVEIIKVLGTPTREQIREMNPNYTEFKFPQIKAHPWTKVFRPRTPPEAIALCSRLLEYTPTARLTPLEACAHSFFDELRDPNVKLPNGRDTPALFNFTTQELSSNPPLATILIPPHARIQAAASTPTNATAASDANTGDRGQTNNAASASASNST

LKB1 = LKB1 (Homo sapiens (Human), UniProt Q15831); test: ActivX kinase probe assay (human PBMC); type: binding; conditions: read-out: percent inhibition
MAP2K1 = MAP2K1 (Homo sapiens (Human), UniProt Q02750); test: ActivX kinase probe assay (human PBMC); type: binding; conditions: read-out: percent inhibition
NEK9 = NEK9 (Homo sapiens (Human), UniProt Q8TD19); test: ActivX kinase probe assay (human PBMC); type: binding; conditions: read-out: percent inhibition
MAP2K1, MAP2K2 = test: ActivX kinase probe assay (human PBMC); type: binding
BTK = BTK (Homo sapiens (Human), UniProt Q06187); test: ActivX kinase probe assay (human PBMC); type: binding; conditions: read-out: percent inhibition
RSK1, RSK2, RSK3 domain1 = test: ActivX kinase probe assay (human PBMC); type: binding
IKKe = IKKe (Homo sapiens (Human), UniProt Q14164); test: ActivX kinase probe assay (human PBMC); type: binding; conditions: read-out: percent inhibition
Chain of IKKe (Q14164 whole entry): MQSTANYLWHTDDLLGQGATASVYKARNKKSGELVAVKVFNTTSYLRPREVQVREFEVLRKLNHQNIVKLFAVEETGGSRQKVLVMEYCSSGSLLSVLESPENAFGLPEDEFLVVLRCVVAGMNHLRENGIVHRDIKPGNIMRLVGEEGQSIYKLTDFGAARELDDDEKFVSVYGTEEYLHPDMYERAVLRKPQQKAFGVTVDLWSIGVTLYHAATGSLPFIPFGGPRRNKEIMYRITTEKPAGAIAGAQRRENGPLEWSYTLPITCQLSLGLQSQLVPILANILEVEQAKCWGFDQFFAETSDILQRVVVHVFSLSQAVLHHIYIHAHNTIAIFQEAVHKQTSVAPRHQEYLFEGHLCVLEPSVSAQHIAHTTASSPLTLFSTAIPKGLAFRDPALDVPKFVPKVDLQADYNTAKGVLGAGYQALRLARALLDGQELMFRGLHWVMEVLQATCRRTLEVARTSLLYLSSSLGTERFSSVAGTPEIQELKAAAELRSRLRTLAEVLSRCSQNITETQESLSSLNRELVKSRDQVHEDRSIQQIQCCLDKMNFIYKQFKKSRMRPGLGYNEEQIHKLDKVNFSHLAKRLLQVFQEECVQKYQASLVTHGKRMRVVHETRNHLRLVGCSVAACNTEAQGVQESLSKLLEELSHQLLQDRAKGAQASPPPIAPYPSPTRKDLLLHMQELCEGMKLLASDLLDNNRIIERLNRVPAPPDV

ZAK = ZAK (Homo sapiens (Human), UniProt Q9NYL2); test: ActivX kinase probe assay (human PBMC); type: binding; conditions: read-out: percent inhibition
HPK1 = HPK1 (Homo sapiens (Human), UniProt Q92918); test: ActivX kinase probe assay (human PBMC); type: binding; conditions: read-out: percent inhibition
Chain of HPK1 (Q92918 whole entry): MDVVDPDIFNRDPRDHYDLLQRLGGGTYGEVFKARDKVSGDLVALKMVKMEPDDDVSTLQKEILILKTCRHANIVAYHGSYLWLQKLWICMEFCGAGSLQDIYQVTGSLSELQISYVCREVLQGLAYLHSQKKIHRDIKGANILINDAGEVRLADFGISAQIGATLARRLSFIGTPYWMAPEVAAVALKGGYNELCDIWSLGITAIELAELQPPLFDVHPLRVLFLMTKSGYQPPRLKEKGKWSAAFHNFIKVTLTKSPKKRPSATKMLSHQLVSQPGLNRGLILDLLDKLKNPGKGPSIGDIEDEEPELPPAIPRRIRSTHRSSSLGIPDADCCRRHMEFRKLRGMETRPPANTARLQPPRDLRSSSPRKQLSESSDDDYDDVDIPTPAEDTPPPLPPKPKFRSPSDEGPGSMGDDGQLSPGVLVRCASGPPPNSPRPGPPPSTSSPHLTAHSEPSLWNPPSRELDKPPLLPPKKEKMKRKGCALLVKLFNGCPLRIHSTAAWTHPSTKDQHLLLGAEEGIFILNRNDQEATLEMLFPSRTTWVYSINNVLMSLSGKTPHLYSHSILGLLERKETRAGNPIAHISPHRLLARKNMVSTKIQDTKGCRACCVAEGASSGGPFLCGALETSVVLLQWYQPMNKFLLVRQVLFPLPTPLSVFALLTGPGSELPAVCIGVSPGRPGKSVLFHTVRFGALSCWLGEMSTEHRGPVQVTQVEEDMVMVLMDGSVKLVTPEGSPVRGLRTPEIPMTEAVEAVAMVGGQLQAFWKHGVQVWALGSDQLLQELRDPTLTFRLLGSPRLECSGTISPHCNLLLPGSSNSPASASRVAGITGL

PIK3C3 = PIK3C3 (Homo sapiens (Human), UniProt Q8NEB9); test: ActivX kinase probe assay (human PBMC); type: binding; conditions: read-out: percent inhibition
Chain of PIK3C3 (Q8NEB9 whole entry): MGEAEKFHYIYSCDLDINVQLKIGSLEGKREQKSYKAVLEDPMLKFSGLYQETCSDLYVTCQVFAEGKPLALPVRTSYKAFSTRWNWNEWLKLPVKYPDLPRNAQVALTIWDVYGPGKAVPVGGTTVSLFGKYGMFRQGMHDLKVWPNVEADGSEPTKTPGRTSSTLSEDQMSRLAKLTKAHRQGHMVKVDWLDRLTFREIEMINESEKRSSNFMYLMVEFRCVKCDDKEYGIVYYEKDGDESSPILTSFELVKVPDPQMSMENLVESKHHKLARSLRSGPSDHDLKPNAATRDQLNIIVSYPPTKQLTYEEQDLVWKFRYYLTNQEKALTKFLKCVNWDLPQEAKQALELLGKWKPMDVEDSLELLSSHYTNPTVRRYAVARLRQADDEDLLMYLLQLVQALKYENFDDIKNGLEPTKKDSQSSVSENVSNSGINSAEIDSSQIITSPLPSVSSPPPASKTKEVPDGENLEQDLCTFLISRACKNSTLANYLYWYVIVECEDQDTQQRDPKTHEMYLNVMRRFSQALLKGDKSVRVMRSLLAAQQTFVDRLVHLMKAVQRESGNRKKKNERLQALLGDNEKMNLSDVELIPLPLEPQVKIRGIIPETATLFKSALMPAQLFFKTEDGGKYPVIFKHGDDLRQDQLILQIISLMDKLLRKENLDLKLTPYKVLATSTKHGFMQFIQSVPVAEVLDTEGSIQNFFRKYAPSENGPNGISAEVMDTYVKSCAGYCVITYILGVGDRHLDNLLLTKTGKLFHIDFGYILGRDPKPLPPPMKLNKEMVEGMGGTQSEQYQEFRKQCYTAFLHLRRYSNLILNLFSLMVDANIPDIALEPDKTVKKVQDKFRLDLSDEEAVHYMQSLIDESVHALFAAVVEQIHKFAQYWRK

NDR2 = NDR2 (Homo sapiens (Human), UniProt Q9Y2H1); test: ActivX kinase probe assay (human PBMC); type: binding; conditions: read-out: percent inhibition
KHS1 = KHS1 (Homo sapiens (Human), UniProt Q9Y4K4); test: ActivX kinase probe assay (human PBMC); type: binding; conditions: read-out: percent inhibition
MAP2K6 = MAP2K6 (Homo sapiens (Human), UniProt P52564); test: ActivX kinase probe assay (human PBMC); type: binding; conditions: read-out: percent inhibition
Chain of MAP2K6 (P52564 whole entry, the tested form may be a part): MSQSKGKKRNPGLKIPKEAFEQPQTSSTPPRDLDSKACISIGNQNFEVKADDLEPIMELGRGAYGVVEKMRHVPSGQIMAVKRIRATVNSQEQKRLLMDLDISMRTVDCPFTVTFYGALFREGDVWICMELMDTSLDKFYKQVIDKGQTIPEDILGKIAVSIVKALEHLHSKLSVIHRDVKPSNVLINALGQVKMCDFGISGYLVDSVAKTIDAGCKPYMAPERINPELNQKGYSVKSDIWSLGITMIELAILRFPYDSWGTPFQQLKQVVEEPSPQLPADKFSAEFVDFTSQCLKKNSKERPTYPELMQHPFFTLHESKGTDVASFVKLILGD

JAK1 domain2 = JAK1 domain2 (Homo sapiens (Human), UniProt P23458); test: ActivX kinase probe assay (human PBMC); type: binding; conditions: read-out: percent inhibition
[2] = system: ZC1/HGK, ZC2/TNIK, ZC3/MINK; test: ActivX kinase probe assay (human PBMC); type: binding
p38a = p38a (Homo sapiens (Human), UniProt Q16539); test: ActivX kinase probe assay (human PBMC); type: binding; conditions: read-out: percent inhibition
Chain of p38a (Q16539 whole entry): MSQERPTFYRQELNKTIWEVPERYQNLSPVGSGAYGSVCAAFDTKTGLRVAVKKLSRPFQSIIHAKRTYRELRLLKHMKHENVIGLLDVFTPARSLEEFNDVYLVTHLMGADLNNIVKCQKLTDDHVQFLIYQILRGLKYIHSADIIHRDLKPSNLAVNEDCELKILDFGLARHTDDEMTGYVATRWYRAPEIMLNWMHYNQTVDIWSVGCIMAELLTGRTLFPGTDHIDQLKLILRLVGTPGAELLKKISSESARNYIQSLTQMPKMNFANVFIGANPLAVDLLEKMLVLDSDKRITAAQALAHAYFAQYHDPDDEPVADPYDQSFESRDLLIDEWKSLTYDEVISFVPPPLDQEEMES

MAP3K4 = MAP3K4 (Homo sapiens (Human), UniProt Q9Y6R4); test: ActivX kinase probe assay (human PBMC); type: binding; conditions: read-out: percent inhibition
CaMK1a = CaMK1a (Homo sapiens (Human), UniProt Q14012); test: ActivX kinase probe assay (human PBMC); type: binding; conditions: read-out: percent inhibition
Chain of CaMK1a (Q14012 whole entry): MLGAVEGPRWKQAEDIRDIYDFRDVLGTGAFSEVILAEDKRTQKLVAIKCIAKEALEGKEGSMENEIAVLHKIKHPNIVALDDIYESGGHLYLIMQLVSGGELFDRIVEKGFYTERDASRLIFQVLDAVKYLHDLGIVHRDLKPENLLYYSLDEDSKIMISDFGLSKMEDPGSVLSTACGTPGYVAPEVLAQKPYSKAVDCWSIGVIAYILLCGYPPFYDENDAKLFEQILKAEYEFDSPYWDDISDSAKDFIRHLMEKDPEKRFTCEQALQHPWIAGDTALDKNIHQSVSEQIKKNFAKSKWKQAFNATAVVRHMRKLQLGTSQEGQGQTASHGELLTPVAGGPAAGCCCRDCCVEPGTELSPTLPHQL

CDK5 = CDK5 (Homo sapiens (Human), UniProt Q00535); test: ActivX kinase probe assay (human PBMC); type: binding; conditions: read-out: percent inhibition
CaMK1d = CaMK1d (Homo sapiens (Human), UniProt Q8IU85); test: ActivX kinase probe assay (human PBMC); type: binding; conditions: read-out: percent inhibition
mutant G2019S LRRK2 = mutant G2019S LRRK2 (Homo sapiens (Human), UniProt Q5S007, G2019S); test: LRRK2 Lantha Screen kinase assay, mutant enzyme; type: biochemical; conditions: geometric mean of 2-5 determinations unless otherwise indicated (a: >=6 determinations; b: single determination)
IKKe, TBK1 = test: ActivX kinase probe assay (human PBMC); type: binding
LATS1 = LATS1 (Homo sapiens (Human), UniProt O95835); test: ActivX kinase probe assay (human PBMC); type: binding; conditions: read-out: percent inhibition
Chain of LATS1 (O95835 whole entry): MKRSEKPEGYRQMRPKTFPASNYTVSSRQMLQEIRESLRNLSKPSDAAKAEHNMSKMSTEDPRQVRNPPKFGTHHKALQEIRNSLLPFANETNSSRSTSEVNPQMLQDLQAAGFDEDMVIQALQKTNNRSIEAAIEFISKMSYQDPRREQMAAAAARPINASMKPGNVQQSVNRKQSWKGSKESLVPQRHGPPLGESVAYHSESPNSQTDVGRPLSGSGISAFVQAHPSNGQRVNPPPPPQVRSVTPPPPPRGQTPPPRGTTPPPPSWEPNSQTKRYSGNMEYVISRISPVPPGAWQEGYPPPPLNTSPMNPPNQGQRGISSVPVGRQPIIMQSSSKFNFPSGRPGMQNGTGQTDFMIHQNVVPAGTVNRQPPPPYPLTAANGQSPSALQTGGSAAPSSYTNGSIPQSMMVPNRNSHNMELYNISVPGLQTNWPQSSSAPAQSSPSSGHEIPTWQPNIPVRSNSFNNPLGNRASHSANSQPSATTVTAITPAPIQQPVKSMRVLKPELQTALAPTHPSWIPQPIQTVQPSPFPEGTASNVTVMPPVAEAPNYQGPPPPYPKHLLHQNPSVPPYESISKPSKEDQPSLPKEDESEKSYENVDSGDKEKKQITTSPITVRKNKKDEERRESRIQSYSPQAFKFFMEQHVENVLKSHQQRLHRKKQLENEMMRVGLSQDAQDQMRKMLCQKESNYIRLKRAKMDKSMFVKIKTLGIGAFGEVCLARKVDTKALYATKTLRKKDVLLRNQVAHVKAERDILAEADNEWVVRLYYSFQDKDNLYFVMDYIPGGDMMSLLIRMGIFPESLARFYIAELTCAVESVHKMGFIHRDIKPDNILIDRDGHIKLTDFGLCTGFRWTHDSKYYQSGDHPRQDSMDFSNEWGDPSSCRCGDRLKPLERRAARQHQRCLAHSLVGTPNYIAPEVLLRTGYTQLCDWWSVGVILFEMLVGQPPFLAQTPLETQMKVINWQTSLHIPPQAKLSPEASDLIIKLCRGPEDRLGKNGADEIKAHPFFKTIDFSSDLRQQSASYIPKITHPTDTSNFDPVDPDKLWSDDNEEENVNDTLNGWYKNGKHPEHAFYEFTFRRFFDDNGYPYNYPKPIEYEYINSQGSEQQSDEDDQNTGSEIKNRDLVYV

FAK = FAK (Homo sapiens (Human), UniProt Q05397); test: ActivX kinase probe assay (human PBMC); type: binding; conditions: read-out: percent inhibition
CDK11, CDK8 = test: ActivX kinase probe assay (human PBMC); type: binding
MST1 = MST1 (Homo sapiens (Human), UniProt Q13043); test: ActivX kinase probe assay (human PBMC); type: binding; conditions: read-out: percent inhibition
MST2 = MST2 (Homo sapiens (Human), UniProt Q13188); test: ActivX kinase probe assay (human PBMC); type: binding; conditions: read-out: percent inhibition
MST1, MST2 = test: ActivX kinase probe assay (human PBMC); type: binding

With `N#Cc1cccc(-c2c[nH]c3ncnc(N4CCOCC4)c23)c1` [Example 4, 3-[4-(Morpholin-4-yl)-7H-pyrrolo[2,3-d]pyrimidin-5-yl]benzonitrile] the IC50 [1] was 3 nM, the inhibition at 0.1 µM (GSK3B) was -3.7% and the inhibition at 1 µM (GSK3B) was 6.7%. It also gave an inhibition at 0.1 µM (LKB1) of 3.5%, an inhibition at 1 µM (LKB1) of 16.5% and an inhibition at 0.1 µM (MAP2K1) of -17.2%. For the same compound, the inhibition at 1 µM (MAP2K1) was 14%, the inhibition at 0.1 µM (NEK9) was -7.1% and the inhibition at 1 µM (NEK9) was 1%. For the same compound, the percent inhibition (MAP2K1, MAP2K2; 0.1 μM) was −7.1%, the percent inhibition (MAP2K1, MAP2K2; 1 μM) was 6.4% and the inhibition at 0.1 µM (BTK) was -2.2%. It also gave an inhibition at 1 µM (BTK) of 9.5%, a percent inhibition (RSK1, RSK2, RSK3 domain1; 0.1 μM) of −0.4% and a percent inhibition (RSK1, RSK2, RSK3 domain1; 1 μM) of 13.4%. The inhibition at 0.1 µM (IKKe) was -7%, the inhibition at 1 µM (IKKe) was 7.4% and the inhibition at 0.1 µM (ZAK) was -20.5%. It also gave an inhibition at 1 µM (ZAK) of -42.2%, an inhibition at 0.1 µM (HPK1) of -1.5% and an inhibition at 1 µM (HPK1) of 5.7%. It also gave an inhibition at 0.1 µM (PIK3C3) of -2.4%, an inhibition at 1 µM (PIK3C3) of 13.6% and an inhibition at 0.1 µM (NDR2) of -18.7%. The inhibition at 1 µM (NDR2) was 22.1%, the inhibition at 0.1 µM (KHS1) was -25.9% and the inhibition at 1 µM (KHS1) was 12.9%. It also gave an inhibition at 0.1 µM (MAP2K6) of -15.1%, an inhibition at 1 µM (MAP2K6) of 13.5% and an inhibition at 0.1 µM (JAK1 domain2) of -6.2%. For the same compound, the inhibition at 1 µM (JAK1 domain2) was 18.9%, the percent inhibition ([2]; 0.1 μM) was −3.2% and the percent inhibition ([2]; 1 μM) was 14.8%. The inhibition at 0.1 µM (p38a) was -14.6%, the inhibition at 1 µM (p38a) was -1.7% and the inhibition at 0.1 µM (MAP3K4) was 9.7%. For the same compound, the inhibition at 1 µM (MAP3K4) was 29.8%, the inhibition at 0.1 µM (CaMK1a) was -9.2% and the inhibition at 1 µM (CaMK1a) was 1.9%. For the same compound, the inhibition at 0.1 µM (CDK5) was -12.2%, the inhibition at 1 µM (CDK5) was 0.1% and the inhibition at 0.1 µM (CaMK1d) was -12.1%. It also gave an inhibition at 1 µM (CaMK1d) of 0.9%, an IC50 (mutant G2019S LRRK2) of 11 nM and a percent inhibition (IKKe, TBK1; 0.1 μM) of −6.7%. It also gave a percent inhibition (IKKe, TBK1; 1 μM) of 18.8%, an inhibition at 0.1 µM (LATS1) of -4.8% and an inhibition at 1 µM (LATS1) of 5.4%. For the same compound, the inhibition at 0.1 µM (FAK) was -8.9%, the inhibition at 1 µM (FAK) was 11.1% and the percent inhibition (CDK11, CDK8; 0.1 μM) was 5%. For the same compound, the percent inhibition (CDK11, CDK8; 1 μM) was 36%.

With `Cn1cc(-c2c[nH]c3ncnc(N4CCOCC4)c23)cc1C#N` [Example 217, 1-methyl-4-[4-(morpholin-4-yl)-7H-pyrrolo[2,3-d]pyrimidin-5-yl]-1H-pyrrole-2-carbonitrile] the IC50 [1] was 6.37 nM, the inhibition at 0.1 µM (GSK3B; GSK3B, 0.1 μM) was -4.3% and the inhibition at 1 µM (GSK3B; GSK3B, 1 μM) was 12.4%. For the same compound, the inhibition at 0.1 µM (LKB1; LKB1, 0.1 μM) was -5.3%, the inhibition at 1 µM (LKB1; LKB1, 1 μM) was 2.4% and the inhibition at 0.1 µM (MAP2K1; MAP2K1, 0.1 μM) was 17.2%. It also gave an inhibition at 1 µM (MAP2K1; MAP2K1, 1 μM) of -1.5%, an inhibition at 0.1 µM (NEK9; NEK9, 0.1 μM) of -11% and an inhibition at 1 µM (NEK9; NEK9, 1 μM) of 1.5%. For the same compound, the inhibition at 0.1 µM (MST1; 0.1 μM) was 25.6%, the inhibition at 1 µM (MST1; 1 μM) was 73.5% and the percent inhibition (MAP2K1, MAP2K2; 0.1 μM) was 10.9%. The percent inhibition (MAP2K1, MAP2K2; 1 μM) was −2.6%, the inhibition at 0.1 µM (BTK; BTK, 0.1 μM) was 24.3% and the inhibition at 1 µM (BTK; BTK, 1 μM) was 8.5%. It also gave a percent inhibition (RSK1, RSK2, RSK3 domain1; 0.1 μM) of 5.0%, a percent inhibition (RSK1, RSK2, RSK3 domain1; 1 μM) of 48.5% and an inhibition at 0.1 µM (IKKe; IKKe, 0.1 μM) of -3%. The inhibition at 1 µM (IKKe; IKKe, 1 μM) was 20.4%, the inhibition at 0.1 µM (ZAK; ZAK, 0.1 μM) was -2.9% and the inhibition at 1 µM (ZAK; ZAK, 1 μM) was -1.2%. The inhibition at 0.1 µM (HPK1; HPK1, 0.1 μM) was -13.7%, the inhibition at 1 µM (HPK1; HPK1, 1 μM) was 1.7% and the inhibition at 0.1 µM (PIK3C3; PIK3C3, 0.1 μM) was 19.9%. The inhibition at 1 µM (PIK3C3; PIK3C3, 1 μM) was 10.2%, the inhibition at 0.1 µM (NDR2; NDR2, 0.1 μM) was 28.9% and the inhibition at 1 µM (NDR2; NDR2, 1 μM) was -6%. It also gave an inhibition at 0.1 µM (KHS1; KHS1, 0.1 μM) of 10.7%, an inhibition at 1 µM (KHS1; KHS1, 1 μM) of 7.6% and an inhibition at 0.1 µM (MAP2K6; MAP2K6, 0.1 μM) of 11.3%. It also gave an inhibition at 1 µM (MAP2K6; MAP2K6, 1 μM) of -0.1%, an inhibition at 0.1 µM (MST2; 0.1 μM) of 34.9% and an inhibition at 1 µM (MST2; 1 μM) of 83.2%. For the same compound, the inhibition at 0.1 µM (JAK1 domain2; JAK1 domain2, 0.1 μM) was 7.4%, the inhibition at 1 µM (JAK1 domain2; JAK1 domain2, 1 μM) was 10.1% and the percent inhibition (MST1, MST2; 0.1 μM) was 21.9%. For the same compound, the percent inhibition (MST1, MST2; 1 μM) was 72.6%, the percent inhibition ([2]; 0.1 μM) was −1.2% and the percent inhibition ([2]; 1 μM) was 7.7%. It also gave an inhibition at 0.1 µM (p38a; p38a, 0.1 μM) of -1.1%, an inhibition at 1 µM (p38a; p38a, 1 μM) of -4.6% and an inhibition at 0.1 µM (MAP3K4; MAP3K4, 0.1 μM) of -35.5%. The inhibition at 1 µM (MAP3K4; MAP3K4, 1 μM) was -27.4%, the inhibition at 0.1 µM (CaMK1a; CaMK1a, 0.1 μM) was -5.4% and the inhibition at 1 µM (CaMK1a; CaMK1a, 1 μM) was -7.1%. For the same compound, the inhibition at 0.1 µM (CDK5; CDK5, 0.1 μM) was 0.5%, the inhibition at 1 µM (CDK5; CDK5, 1 μM) was 7.9% and the inhibition at 0.1 µM (CaMK1d; CaMK1d, 0.1 μM) was 11.7%. The inhibition at 1 µM (CaMK1d; CaMK1d, 1 μM) was 3.1%, the IC50 (mutant G2019S LRRK2) was 13 nM and the percent inhibition (IKKe, TBK1; 0.1 μM) was 2.3%. It also gave a percent inhibition (IKKe, TBK1; 1 μM) of 13.3%, an inhibition at 0.1 µM (LATS1; LATS1, 0.1 μM) of -3.9% and an inhibition at 1 µM (LATS1; LATS1, 1 μM) of 1.9%. It also gave an inhibition at 0.1 µM (FAK; FAK, 0.1 μM) of 8.1%, an inhibition at 1 µM (FAK; FAK, 1 μM) of 17.4% and a percent inhibition (CDK11, CDK8; 0.1 μM) of −5.6%. The percent inhibition (CDK11, CDK8; 1 μM) was −5.2%.
